The source of these data is publication PMC5557372 (ChemMedChem, 2017).

≈ marks a conversion by molar mass, not a printed value. Where “and” joins values, the source holds several entries; their conditions need not be identical. Identical values can stand only once. Like-named read-outs stand apart in the source and are kept apart here.

One series concerns the target Complex II (CII) (Rattus norvegicus, UniProt P21913+Q641Z9+Q6PCT8). Kind of series: Complex II inhibition assay. The class given is biochemical. The conditions noted are these: for CII inhibition activity (in words): rat heart mitochondria; for LLE: Ligand-Lipophilicity Efficiency (LLE = pIC50-ClogP).
For series [1], the system named is PC3 prostate cancer cells under hypoxia. Put plainly: Hypoxia cytotoxicity in microfluidic culture.
The subject of the next series is bovine CII. The conditions noted are these: read-out: bovine CII IC50; cited from earlier work.
The next series relates to HEK293 cells. Kind of series: MTS cytotoxicity assay, HEK293. The conditions noted are these: for IC50: Homo sapiens, HEK293, 48 h, read-out: HEK293 IC50.
In series [2] the target is Complex I (NADH ubiquinone-oxidoreductase) (Mus musculus, UniProt P03888+Q91WD5+Q9DC70). Kind of series: Complex I inhibition assay. The note with it: for Selectivity Ratio (CII:CI): Complex I IC50 / Complex II IC50. The class given is biochemical.
The next series concerns 22Rv1 cells. Kind of series: Seahorse XF metabolic parameters. Format: cell-based, human. The note with it: 22Rv1, 48 hour incubation.
Series [3] deals with PC3 prostate cancer cells. Kind of series: MTS cytotoxicity assay, PC3. The conditions noted are these: Homo sapiens, 48 h, read-out: PC3 IC50. In general terms: Formazan colour is commonly taken as a measure of viable cells.
Series [4] concerns DU-145 prostate cancer cells. Kind of series: MTS cytotoxicity assay, DU-145. The note with it: Homo sapiens, DU-145, 48 h, read-out: DU-145 IC50.
In series [5] the test system is 22Rv1 prostate cancer cells. Kind of series: MTS cytotoxicity assay, 22Rv1. The note with it: 22Rv1, 48 hours; plateau beyond.
For another series, the system named is CII. The conditions noted are these: read-out: CII IC50, cited from earlier work.
Setting [6] is: CII IC50, rat heart mitochondria, mean of n = 4 ± S.D.

Complex II (CII), sequence (P21913 31-282): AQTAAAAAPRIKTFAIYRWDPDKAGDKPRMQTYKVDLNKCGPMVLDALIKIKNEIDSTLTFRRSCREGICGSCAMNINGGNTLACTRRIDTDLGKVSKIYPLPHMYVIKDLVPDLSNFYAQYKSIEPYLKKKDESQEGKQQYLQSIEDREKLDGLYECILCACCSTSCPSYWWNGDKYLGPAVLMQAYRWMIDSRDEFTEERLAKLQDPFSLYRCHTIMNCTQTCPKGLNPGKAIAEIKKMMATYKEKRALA
Complex II (CII), sequence (Q641Z9 30-169 limits assumed): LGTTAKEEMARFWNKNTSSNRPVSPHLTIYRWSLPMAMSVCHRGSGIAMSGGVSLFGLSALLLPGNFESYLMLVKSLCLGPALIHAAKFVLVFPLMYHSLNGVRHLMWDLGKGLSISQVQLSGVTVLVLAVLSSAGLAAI
Complex II (CII), sequence (Q6PCT8 57-159): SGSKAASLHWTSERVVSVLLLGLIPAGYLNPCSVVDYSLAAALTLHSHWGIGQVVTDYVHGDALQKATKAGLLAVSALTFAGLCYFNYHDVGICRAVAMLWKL
Complex II (CII), sequence (Q920L2 35-656 partner): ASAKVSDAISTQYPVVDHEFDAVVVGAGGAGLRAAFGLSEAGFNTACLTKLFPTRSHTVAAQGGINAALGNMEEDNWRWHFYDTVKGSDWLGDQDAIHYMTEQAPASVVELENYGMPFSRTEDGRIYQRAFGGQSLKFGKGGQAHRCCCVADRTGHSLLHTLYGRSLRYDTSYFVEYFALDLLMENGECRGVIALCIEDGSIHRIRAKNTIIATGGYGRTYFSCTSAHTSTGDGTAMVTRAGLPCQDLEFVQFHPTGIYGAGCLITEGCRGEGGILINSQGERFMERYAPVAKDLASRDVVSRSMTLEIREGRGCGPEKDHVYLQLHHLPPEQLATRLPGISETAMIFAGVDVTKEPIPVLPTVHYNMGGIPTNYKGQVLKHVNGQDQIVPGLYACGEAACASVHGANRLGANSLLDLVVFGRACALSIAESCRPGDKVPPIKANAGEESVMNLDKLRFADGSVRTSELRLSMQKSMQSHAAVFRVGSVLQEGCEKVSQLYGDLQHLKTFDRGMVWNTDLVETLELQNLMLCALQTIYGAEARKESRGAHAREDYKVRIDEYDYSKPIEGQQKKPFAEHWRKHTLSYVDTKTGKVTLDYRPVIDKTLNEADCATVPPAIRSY

With `CCCCCC(O)c1c(O)nc(OC)c(OC)c1O` (racemic) [compound 18, (rac)-3-(1-hydroxyhexyl)-5,6-dimethoxypyridine-2,4-diol], the “CII inhibition activity (in words)” value on Complex II (CII) is “no CII inhibition activity”. The inhibition at 0.1 µM on Complex II (CII) (read-out: inhibition of CII at 100 nM concentration) came to 0%. Moreover, in series [1] (up to 10 μM), the “cytotoxic effect under hypoxia (in words)” value is on record as “no cytotoxic effect”.

With `CCCCCC(O)c1cnc(OC)c(OC)c1O` (racemic) [compound 19, (rac)-5-(1-hydroxyhexyl)-2,3-dimethoxypyridin-4-ol], the “CII inhibition activity (in words)” value at Complex II (CII) is “inactive”.

`COc1nc(O)c(C(=O)c2ccco2)c(O)c1OC` [16a, (2,4-dihydroxy-5,6-dimethoxypyridin-3-yl)(furan-2-yl)methanone]: the “CII inhibition activity (in words)” value on Complex II (CII) is “abrogates CII inhibition activity”.

In the case of `CCCCC(=O)c1c(O)nc(OC)c(OC)c1O` [16b, 1-(2,4-dihydroxy-5,6-dimethoxypyridin-3-yl)pentan-1-one], the IC50 in the series on bovine CII was 0.096 µM; at Complex II (CII) (setting [6]), 345 nM and 346 nM. The compound further had an LLE on Complex II (CII) of 5.37.

Take `CCCCCC(=O)c1c(O)nc(OC)c(OC)c1O` [16c, 1-(2,4-dihydroxy-5,6-dimethoxypyridin-3-yl)hexan-1-one]: the IC50 in the series with HEK293 cells was 71 ± 5.2 mg/L (≈ 264 µM); in series [2] it was above 10 µM; against Complex II (CII) (CII IC50 expressed in μg/mL, conversion of the nM IC50), 64 nM; in [3], 55 ± 9.4 mg/L (≈ 204 µM); in series [4] it was 13 ± 1.6 mg/L (≈ 48.3 µM). Besides, in the series with HEK293 cells (ratio of IC50 values), the “selectivity for DU-145 and 22Rv1 prostate cancer cells over HEK293” value is listed as around 7 fold. Besides, in series [2], the “Selectivity Ratio (CII:CI)” value is above 156. Moreover, on Complex II (CII), the LLE is recorded as 5.62. For the same compound, the oxygen consumption rate entry in the series with 22Rv1 cells (1-100 μM) is listed as “substantially reduced in a dose-dependent manner”. For the same compound, the ATP production entry in the series with 22Rv1 cells (vs no treatment control) is “inhibition of ATP production”. In addition, in the series on 22Rv1 cells (vs no treatment control), the basal respiration result is given as “reducing basal respiration”. Besides, in the series with 22Rv1 cells (vs no treatment control), the maximal respiration result is given as “reduction of maximal respiration”. Further, in series [1] (1 μM), the cell death came to 12%.

With `COc1nc(O)c(C(=O)CCCCOCc2ccccc2)c(O)c1OC` [16d, 5-(benzyloxy)-1-(2,4-dihydroxy-5,6-dimethoxypyridin-3-yl)pentan-1-one], the IC50 against Complex II (CII) (setting [6]) stood at 281 ± 88.7 nM.

Regarding `COc1nc(O)c(C(=O)CCCCO)c(O)c1OC` [16e, 1-(2,4-dihydroxy-5,6-dimethoxypyridin-3-yl)-5-hydroxypentan-1-one], on Complex II (CII) (setting [6]), the IC50 is 3730 ± 1020 nM. Besides, at Complex II (CII) (vs literature IC50 of diazoxide), the “fold greater CII activity than diazoxide” value came out at 10 fold.

Turning to `CCCCCCC(=O)c1c(O)nc(OC)c(OC)c1O` [16f, 1-(2,4-dihydroxy-5,6-dimethoxypyridin-3-yl)heptan-1-one], the figures for the IC50 in the series on bovine CII and against Complex II (CII) (setting [6]) were 0.02 µM and 283 nM, respectively. This compound yielded an LLE on Complex II (CII) of 4.57.

The compound `CCCCCCCC(=O)c1c(O)nc(OC)c(OC)c1O` [16g, 1-(2,4-dihydroxy-5,6-dimethoxypyridin-3-yl)octan-1-one] registered an LLE at Complex II (CII) of 4.89.

The compound `CCCCCCCCC(=O)c1c(O)nc(OC)c(OC)c1O` [16h, 1-(2,4-dihydroxy-5,6-dimethoxypyridin-3-yl)nonan-1-one] gave an LLE on Complex II (CII) of 4.93.

Regarding `CCCCCCCCCCC(=O)c1c(O)nc(OC)c(OC)c1O` [16j, 1-(2,4-dihydroxy-5,6-dimethoxypyridin-3-yl)undecan-1-one], at Complex II (CII), the LLE came out at 4.32.

For the compound `CCCCCCCCCCCCC(=O)c1c(O)nc(OC)c(OC)c1O` [16k, 1-(2,4-dihydroxy-5,6-dimethoxypyridin-3-yl)tridecan-1-one], the IC50 is 28 ± 2 mg/L (≈ 76.2 µM) in the series with HEK293 cells and 3.29 nM on Complex II (CII) (read-out: CII IC50 expressed in μg/mL, conversion of the nM IC50). The “selectivity for 22Rv1 over HEK293 cell line” value in the series on HEK293 cells (ratio of IC50 values) is on record as 14 fold. In series [2], the “Selectivity Ratio (CII:CI)” value was above 3030. For the same compound, the “concentration at which maximal cytotoxicity is reached” value in series [5] was 10 µg/mL. In addition, on Complex II (CII), the LLE was 3.76.

Consider `COc1[nH]c(=O)c(C(=O)[C@@H](C)C[C@H](C)[C@@H](Cl)CCl)c(O)c1OC` [Atpenin A5, atpenin A5, reference compound], for which the IC50 was 3.3 ± 2 nM against Complex II (CII) (setting [6]) and 0.0036 to 0.01 µM with CII.

As for `O=C(O)CC(=O)O` [Malonate], the IC50 in the series on CII is 40 µM.

On to `O=C(CC(=O)C(F)(F)F)c1cccs1` [Thenoyltrifluoroacetone], for which the IC50 in the series with CII (control compound in CII assay kits) is 30 µM.

With `CCCCCC(=O)c1cnc(OC)c(OC)c1O` [compound 20, 1-(4-hydroxy-5,6-dimethoxypyridin-3-yl)hexan-1-one], the “CII inhibition activity at 100 nM concentration (in words)” value at Complex II (CII) was “no activity”.

On to `CCCCCC(OC)c1cnc(OC)c(OC)c1O` (stereo not shown) [compound 24, 2,3-dimethoxy-5-(1-methoxyhexyl)pyridin-4-ol], for which, at Complex II (CII), the “CII inhibition activity at 100 nM concentration (in words)” value is reported as “no activity”.

Take `Cc1c(C)c2c(c(C)c1OC(=O)CCC(=O)O)CC[C@@](C)(CCC[C@H](C)CCC[C@H](C)CCCC(C)C)O2` [α-Tocopheryl succinate, α -Tocopheryl succinate]: in the series on CII, the IC50 is 42 µM.
